Test results published in patent US20070270336A1, “Method for accelerating cutaneous barrier recovery” (Shiseido Company, Ltd., priority 2006, published 2007).
Entries after “also recorded” stand apart in the source; their conditions may differ.

How the values were obtained:
[1] = test system: hairless mice flank skin; assay: Permeability barrier recovery (TEWL) after tape stripping; assay type: in vivo, mouse; details: for permeability barrier recovery after tape stripping (percent recovery of TEWL): single topical application after tape stripping, each reagent 1 mM (FIG. 1 legend), 1, 3 and 6 hours, vs water control
Experimental: All experiments were performed on 7-10-week old male hairless mice (HR-1, Hoshino, Japan). All procedures for measuring of skin barrier function, disrupting the barrier and applying the sample were carried out under anesthesia. All experiments were approved by the Animal Research Committee of the Shiseido Research Center in accordance with the National Research Council Guide. 1-EBIO, diazoxide, gilbenclamide, minoxidil, dequalinium were purchased from Tocris (TOCRIS, Bristol, UK). Valinomycin was purchased from Wako (Wako Osaka, Japan).
(§1) Permeability barrier function was evaluated by measurement of transepidermal water loss (TEWL) with an electric water analyzer, as described previously (Denda, M., Sato J., Masuda Y., Kuramoto M., Elias P. M., Feingold K. R. (1998). J Invest Dermatol 111(5): 858-63). For barrier recovery experiments, both sides of flank skin were treated with repeated tape stripping until the TEWL reached 7-10 mg per cm^2 per h. […] The areas were covered with plastic membranes for 15 min (both treated and control sites) and then the membranes were removed. Previous studies have shown that occlusion for a longer period of time delays barrier repair. […] Two points on one side of a flank were measured and 4-8 mice were used to evaluate the effects of each treatment. We always disrupted the barrier between 7:00AM to 8:00AM to avoid variations in repair rate due to the influence of circadian rhythm. TEWL was then measured over the same sites at 1, 3 and 6 hours after barrier disruption. The barrier recovery results are expressed as percent of recovery, because of variations from day to day in the extent of barrier disruption. In each animal, the percentage of recovery was calculated by the following formula: (TEWL immediately after barrier disruption−TEWL at indicated time point)/(TEWL immediately after barrier disruption−baseline TEWL)×100%). All experiments were performed on 7 to 10-week-old male hairless mice (HR-1, Hoshino, Japan). All procedures including measurement of skin barrier function, disruption of the barrier, and application of test samples were carried out under anesthesia.

[2] = test system: differentiated cultured human keratinocytes (CHK); assay: Evaluation of intracellular potassium levels (PBFI-AM fluorescence); assay type: cell-based; details: FIG. 3
Experimental: Evaluation of intracellular potassium levels All in vitro cell culture measurements were carried out using second passage human neonatal keratinocytes. We incubated cells in a low calcium medium (0.1 mM calcium, HuMedia-KG2, KURABO, Osaka, Japan) for at least 5 days and used the cells within 10 days. These keratinocytes were incubated until 100% of confluency, incubated 3 more days, and then incubated in a high calcium medium (1.8 mM calcium) for 24 hours to induce differentiation of the keratinocytes. We then added PBF1-AM (Molecular Probes, Eugene, Oreg.), final concentration 10 μM, and then incubated the cells for 4 hours at 37 C. The cultured keratinocytes were then washed in the medium described above. The cover slip was mounted on a fluorescence microscope (IX70, TS Olympus, Tokyo, Japan) equipped with a 75 W xenon-lamp and band-path filters of 340 nm. Measurements were carried out at the room temperature. Imaging data, recorded by a high-sensitive silicon intensifier target camera (C4742, Hamamatsu Photonics, Hamamatsu, Japan) were recorded by a fluorescence analyzing system (AQUACOSMOS/RATIO1, Hamamatsu Photonics, Hamamatsu, Japan).

[3] = test system: mouse epidermis (stratum granulosum lamellar bodies); assay: Electron-microscopic study of lamellar body secretion after acetone treatment; assay type: in vivo; details: one hour after acetone treatment; electron microscopy; FIG. 4
Text: The full thickness of skin samples for electron microscopy was minced into pieces (<0.5 mm^3) and fixed in modified Karnovsky's fixative overnight. They were then post-fixed in 2% aqueous osmium tetroxide or 0.2% ruthenium tetroxide as described previously (Denda et al. 1998, op. cit.). After fixation, all samples were dehydrated in graded ethanol solutions, and embedded in an Epon-epoxy mixture. Thin sections were stained with lead citrate and uranyl acetate and viewed by electron microscopy.

[4] = test system: hairless mice epidermis; assay: Epidermal hyperplasia induced by barrier disruption under low humidity; assay type: in vivo, mouse
Experimental: Animals were kept separately in 7.2 liter cages in which the relative humidity was maintained at less than 10% with dry air as described previously (Denda et al. 1998a). The temperature was the same in all cases (22-25° C.), and fresh air was circulated 100 times per hour. Animals were kept out of the direct stream of air. During the experiments, the animal's behavior was not restricted. The level of NH3 was always below 1 ppm. Animals were first kept in a dry condition for 48 hours and then the skin on both flank sides was treated with acetone-soaked cotton balls, as described previously (Denda et al. 1998a). The procedure was terminated when TEWL reached 2.5-3.5 mg per cm^2 per h. Immediately after the barrier disruption, 100 ul of Diazoxide aqueous solution (100 uM) was applied on one side of the treated area. Water was applied on the other side. Then the animals were again kept in the dry condition for 48 hours. After the experiments, animals were euthanized with diethylether inhalation and skin samples were taken from the treated area. […] On each section, five areas were selected at random; the thickness of the epidermis was measured with an optical micrometer, and the mean value was calculated. […] On each section, five areas were selected at random from one section; the number of immunostained cells per 1 mm of epidermis was counted and the mean value was calculated. […]

[5] = test system: hairless mouse flanks; assay: Permeability barrier recovery (TEWL) after acetone treatment; assay type: in vivo; details: topical potassium ionophore; FIG. 2B; n=4
Experimental: as §1, with “[…] Immediately after” for “For”, “disruption 100 μl” for “recovery experiments, both sides”, “an aqueous solution containing 1 μM of reagent or water alone (control) was applied to the” for “flank skin were”, “area.” for “with repeated tape stripping until the TEWL reached 7-10 mg per cm^2 per h.”, “All experiments were performed on 7 to 10-week-old male hairless mice (HR-1, Hoshino, Japan). All procedures including measurement of skin barrier function, disruption of the barrier, and application of test samples were carried out under anesthesia.” left out

SMILES	permeability barrier recovery after tape stripping (percent recovery of TEWL) [1]	change in intracellular potassium (K+) concentration ([2]; 10 μM final concentration)	lamellar body (LB) secretion at SG-SC interface [3]	other results
Cc1cc(N)c2ccccc2[n+]1CCCCCCCCCC[n+]1c(C)cc(N)c2ccccc21 [dequalinium, 1,1-(1,10-Decanedyl)bis(4-amino-2-methylquinolinium)dichloride]	significantly delayed barrier recovery	–	–	–
CC1=Nc2ccc(Cl)cc2S(=O)(=O)N1 [diazoxide, 7-chloro-3-methyl-2H-1,2,4-benzothiadiazine 1,1-dioxide]	significantly accelerated barrier repair; also recorded: accelerated barrier recovery	decreased intracellular K^+ concentrations; also recorded: decreased intracellular potassium concentrations	much more secreted material is evident at SG-SC interface; also recorded: accelerated the secretion of LB	epidermal hyperplasia induced by acetone treatment under low humidity ([4]; topical 100 uM aqueous solution, 48 hours dry condition, vs water, FIG. 5): prevented the epidermal hyperplasia; epidermal proliferation (BrdU positive cells), quantified ([4]; topical 100 uM, FIG. 6, 6 control mice and 5 treated, ANOVA probability 0.0372): Significant reductions of epidermal proliferation
COc1ccc(Cl)cc1C(=O)NCCc1ccc(S(=O)(=O)NC(=O)NC2CCCCC2)cc1 [gilbenclamide, 5-chloro-N{2-[4[[[cycohexylamino]carbonyl]amino]sulfonyl]phenyl}-2-metyhoxybenzamide]	significantly delayed barrier recovery	–	–	–
CCn1c(=O)[nH]c2ccccc21 [1-EBIO, 1-Ethyl-2-benzoimidazollnone]	significantly accelerated barrier repair; also recorded: accelerated barrier recovery	decreased intracellular K^+ concentrations; also recorded: decreased intracellular potassium concentrations	–	–
CC(C)[C@@H]1NC(=O)[C@H](C)OC(=O)[C@@H](C(C)C)NC(=O)[C@@H](C(C)C)OC(=O)[C@H](C(C)C)NC(=O)[C@H](C)OC(=O)[C@@H](C(C)C)NC(=O)[C@@H](C(C)C)OC(=O)[C@H](C(C)C)NC(=O)[C@H](C)OC(=O)[C@@H](C(C)C)NC(=O)[C@@H](C(C)C)OC1=O [valinomycin]	–	–	much more secreted material is evident at SG-SC interface; also recorded: accelerated the secretion of LB	permeability barrier recovery after tape stripping ([1]; topical potassium ionophore, FIG. 2A, n=4): accelerated barrier recovery; permeability barrier recovery after acetone treatment [5]: accelerated barrier recovery; change in intracellular potassium (K+) concentration ([2]; 1 μM final concentration): decreased intracellular K^+ concentrations; also recorded: decreased intracellular potassium concentrations
